#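 Cultured in 96-well plates, cells were exposed to test compound for 48 hours across five concentrations. TGI: total growth inhibition.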
# Tests used:
# Test in all cases: inhibition of tumour cell growth, NCI panel, 48 h
# EKVX NSCLC = system: EKVX NSCLC
# MALME-3M melanoma = system: MALME-3M melanoma
# DU-145 prostate = system: DU-145 prostate
# SF-295 CNS = system: SF-295 CNS
# SK-MEL-5 melanoma = system: SK-MEL-5 melanoma
# CCRF-CEM leukemia = system: CCRF-CEM leukemia
# TK-10 renal = system: TK-10 renal
# UACC-257 melanoma = system: UACC-257 melanoma
# IGROV1 ovarian = system: IGROV1 ovarian
# LOX IMVI melanoma = system: LOX IMVI melanoma
# KM12 colon = system: KM12 colon
# HT29 colon = system: HT29 colon
# M14 melanoma = system: M14 melanoma
# MCF7 breast = system: MCF7 breast
# SF-268 CNS = system: SF-268 CNS
# HCT-116 colon = system: HCT-116 colon
# BT-549 breast = system: BT-549 breast
# NCI-H522 lung = system: NCI-H522 lung
# MDA-N = system: MDA-N
# SK-MEL-28 melanoma = system: SK-MEL-28 melanoma
# RPMI-8226 leukemia = system: RPMI-8226 leukemia
# COLO 205 colon = system: COLO 205 colon
# A549 NSCLC = system: A549 NSCLC
# OVCAR-3 ovarian = system: OVCAR-3 ovarian
# SR leukemia = system: SR leukemia
# NCI-H460 lung = system: NCI-H460 lung
# UO-31 renal = system: UO-31 renal
# MDA-MB-435 = system: MDA-MB-435
# HCC-2998 colon = system: HCC-2998 colon
# HS 578T breast = system: HS 578T breast
# SN12C renal = system: SN12C renal
# SNB-19 CNS = system: SNB-19 CNS
# OVCAR-4 ovarian = system: OVCAR-4 ovarian
# HCT-15 colon = system: HCT-15 colon
# ACHN renal = system: ACHN renal
# HL-60(TB) leukemia = system: HL-60(TB) leukemia
# NCI-H23 lung = system: NCI-H23 lung
# OVCAR-8 ovarian = system: OVCAR-8 ovarian
# UACC-62 melanoma = system: UACC-62 melanoma
# 786-0 renal = system: 786-0 renal
# NCI/ADR-RES ovarian = system: NCI/ADR-RES ovarian
# MOLT-4 leukemia = system: MOLT-4 leukemia
# K-562 leukemia = system: K-562 leukemia
# CAKI-1 renal = system: CAKI-1 renal
# MDA-MB-231 breast = system: MDA-MB-231 breast
# SW-620 colon = system: SW-620 colon
# HOP-62 NSCLC = system: HOP-62 NSCLC
# T-47D breast = system: T-47D breast
# SF-539 CNS = system: SF-539 CNS
# U251 CNS = system: U251 CNS
# NCI-H226 lung = system: NCI-H226 lung
# PC-3 prostate = system: PC-3 prostate
# SK-MEL-2 melanoma = system: SK-MEL-2 melanoma
# HOP-92 NSCLC = system: HOP-92 NSCLC
# SNB-75 CNS = system: SNB-75 CNS
# RXF 393 renal = system: RXF 393 renal
# OVCAR-5 ovarian = system: OVCAR-5 ovarian
# A498 renal = system: A498 renal
smiles,measurement,setting,value
COc1nc(=O)n(C2CC(F)C(CO)O2)cc1C (stereo unspecified),TGI,EKVX NSCLC,> 100 µM
same,TGI,MALME-3M melanoma,> 100 µM
same,TGI,DU-145 prostate,> 100 µM
same,TGI,SF-295 CNS,> 100 µM
same,TGI,SK-MEL-5 melanoma,> 100 µM
same,TGI,CCRF-CEM leukemia,> 100 µM
same,TGI,TK-10 renal,> 100 µM
same,TGI,UACC-257 melanoma,> 100 µM
same,TGI,IGROV1 ovarian,> 100 µM
same,TGI,LOX IMVI melanoma,> 100 µM
same,TGI,KM12 colon,> 100 µM
same,TGI,HT29 colon,> 100 µM
same,TGI,M14 melanoma,> 100 µM
same,TGI,MCF7 breast,> 100 µM
same,TGI,SF-268 CNS,> 100 µM
same,TGI,HCT-116 colon,> 100 µM
same,TGI,BT-549 breast,> 100 µM
same,TGI,NCI-H522 lung,> 100 µM
same,TGI,MDA-N,> 100 µM
same,TGI,SK-MEL-28 melanoma,> 100 µM
same,TGI,RPMI-8226 leukemia,> 100 µM
same,TGI,COLO 205 colon,> 100 µM
same,TGI,A549 NSCLC,> 100 µM
same,TGI,OVCAR-3 ovarian,> 100 µM
same,TGI,SR leukemia,> 100 µM
same,TGI,NCI-H460 lung,> 100 µM
same,TGI,UO-31 renal,> 100 µM
same,TGI,MDA-MB-435,> 100 µM
same,TGI,HCC-2998 colon,> 100 µM
same,TGI,HS 578T breast,> 100 µM
same,TGI,SN12C renal,> 100 µM
same,TGI,SNB-19 CNS,> 100 µM
same,TGI,OVCAR-4 ovarian,> 100 µM
same,TGI,HCT-15 colon,> 100 µM
same,TGI,ACHN renal,> 100 µM
same,TGI,HL-60(TB) leukemia,> 100 µM
same,TGI,NCI-H23 lung,> 100 µM
same,TGI,OVCAR-8 ovarian,> 100 µM
same,TGI,UACC-62 melanoma,> 100 µM
same,TGI,786-0 renal,> 100 µM
same,TGI,NCI/ADR-RES ovarian,> 100 µM
same,TGI,MOLT-4 leukemia,> 100 µM
same,TGI,K-562 leukemia,> 100 µM
same,TGI,CAKI-1 renal,> 100 µM
same,TGI,MDA-MB-231 breast,> 100 µM
same,TGI,SW-620 colon,> 100 µM
same,TGI,HOP-62 NSCLC,> 100 µM
same,TGI,T-47D breast,> 100 µM
same,TGI,SF-539 CNS,> 100 µM
same,TGI,U251 CNS,> 100 µM
same,TGI,NCI-H226 lung,> 100 µM
O=C(O)CCC[C@]1(O)O[C@@]2(CCCC2=O)[C@]2(O)CCC[C@@]21O,TGI,PC-3 prostate,> 100 µM
same,TGI,SK-MEL-2 melanoma,> 100 µM
same,TGI,EKVX NSCLC,> 100 µM
same,TGI,MALME-3M melanoma,> 100 µM
same,TGI,DU-145 prostate,> 100 µM
same,TGI,SF-295 CNS,64.4 µM
same,TGI,HOP-92 NSCLC,> 100 µM
same,TGI,SNB-75 CNS,> 100 µM
same,TGI,SK-MEL-5 melanoma,> 100 µM
same,TGI,TK-10 renal,> 100 µM
same,TGI,UACC-257 melanoma,> 100 µM
same,TGI,IGROV1 ovarian,> 100 µM
same,TGI,LOX IMVI melanoma,> 100 µM
same,TGI,KM12 colon,> 100 µM
same,TGI,HT29 colon,> 100 µM
same,TGI,M14 melanoma,> 100 µM
same,TGI,MCF7 breast,> 100 µM
same,TGI,RXF 393 renal,> 100 µM
same,TGI,SF-268 CNS,> 100 µM
same,TGI,HCT-116 colon,> 100 µM
same,TGI,BT-549 breast,> 100 µM
same,TGI,NCI-H522 lung,0.228 µM
same,TGI,MDA-N,> 100 µM
same,TGI,SK-MEL-28 melanoma,> 100 µM
same,TGI,RPMI-8226 leukemia,> 100 µM
same,TGI,COLO 205 colon,> 100 µM
same,TGI,A549 NSCLC,> 100 µM
same,TGI,OVCAR-3 ovarian,> 100 µM
same,TGI,SR leukemia,> 100 µM
same,TGI,NCI-H460 lung,> 100 µM
same,TGI,UO-31 renal,> 100 µM
same,TGI,HS 578T breast,> 100 µM
same,TGI,SN12C renal,> 100 µM
same,TGI,SNB-19 CNS,> 100 µM
same,TGI,OVCAR-4 ovarian,> 100 µM
same,TGI,HCT-15 colon,> 100 µM
same,TGI,ACHN renal,> 100 µM
same,TGI,HL-60(TB) leukemia,> 100 µM
same,TGI,NCI-H23 lung,> 100 µM
same,TGI,OVCAR-8 ovarian,> 100 µM
same,TGI,UACC-62 melanoma,> 100 µM
same,TGI,786-0 renal,> 100 µM
same,TGI,NCI/ADR-RES ovarian,> 100 µM
same,TGI,MOLT-4 leukemia,> 100 µM
same,TGI,OVCAR-5 ovarian,> 100 µM
same,TGI,K-562 leukemia,> 100 µM
same,TGI,CAKI-1 renal,> 100 µM
same,TGI,MDA-MB-231 breast,> 100 µM
same,TGI,SW-620 colon,> 100 µM
same,TGI,HOP-62 NSCLC,> 100 µM
same,TGI,T-47D breast,> 100 µM
same,TGI,A498 renal,> 100 µM
same,TGI,SF-539 CNS,> 100 µM
same,TGI,U251 CNS,> 100 µM
same,TGI,NCI-H226 lung,> 100 µM

# Source: PubChem BioAssay (NCI)
